Measured values reported in patent US9629834B2, “Medicinal composition for inhibiting formation and/or enlargement of cerebral aneurysm or shrinking same” (KYOTO UNIVERSITY, priority 2013, dated 2017).

Tests used:
[1] = test system: cerebral aneurysm model; experiment: Inhibitory effect on formation of cerebral aneurysm in cerebral aneurysm model (EvG staining, size of aneurysm); type: in vivo, SD rat; conditions: 5 mL/kg, forced oral, once a day, Day 0 to Day 26
Method: A rat model of cerebral aneurysm was prepared according to the method disclosed on the literature by Hashimoto et al. (Surgical Neurology 1978, Vol. 10, p. 3-8). Namely, 50 mg/kg of pentobarbital was administrated intraperitoneally to a 7-week-old male SD rat, and the left common carotid artery and the left renal artery were ligated by using 10-0 nylon thread under anesthesia (this is referred to as the surgery for inducing cerebral aneurysm). From the day after surgery (Day 1), the rat was reared with being fed a high-salt diet. During a rearing period, the rat was given free access to water. Forced oral administration of 0.03 mg/5 mL or 0.1 mg/5 mL of the suspension of Compound 1 to the cerebral aneurysm model was conducted once a day at a dose of 5 mL/kg from the day after surgery, i.e., 1 day after surgery (Day 1) to 27 days after surgery (Day 27). It should be noted that forced oral administration of the 0.5% MC solution (0 mg/5 mL of the suspension of Compound 1) to the cerebral aneurysm model was conducted once a day at a dose of 5 mL/kg. The group of these rats was defined as a vehicle group. 28 Days after surgery (Day 28), the right olfactory artery/anterior cerebral artery bifurcation containing cerebral aneurysm was extirpated and was fixed with 4% paraformaldehyde, and then the solution was replaced with a 30% sucrose solution, and thereafter, the extirpated bifurcation was frozen to prepare a specimen of a frozen section having a thickness of 5 μm, by similar procedures to the steps 1) and 2) of the method of Reference Example 2. This specimen was subjected to EvG staining and the formation of cerebral aneurysm was confirmed. The size of cerebral aneurysm was measured and evaluation was conducted. The maximum diameter (Maximum) represents the maximum distance between internal elastic lamina disruption sites observed by EvG staining, the height “Height” represents the maximum value of height defined as the length of the perpendicular line drawn from the line connecting the two ends of internal elastic lamina, and the mean diameter “Mean” represents the mean value of the maximum diameter and the height. This evaluation was conducted on all the rats (8 or 9 rats) of each of the groups, and the mean value of each of the groups was calculated. The administration of 0.1 mg/5 mL of a suspension of Compound 2 to the cerebral aneurysm model was started on the day of the surgery (Day 0) at a dose of 5 mL/kg, and forced oral administration was conducted once a day until 26 days after surgery (Day 26). The size of cerebral aneurysm was measured by using the protocol of Example 1. […] The size of cerebral aneurysm was measured by using the protocol of Example 1. […] The size of cerebral aneurysm was measured by using the protocol of Example 1.

[2] = test system: Human carotid artery endothelial cells; experiment: Inhibitory action of S1P1 receptor antagonist on inhibitory effect of Compound 1 on permeability of endothelial cells; type: cell-based; conditions: antagonist 0.1 nM, 1 nM, 10 nM, or 100 nM with Compound 1 100 nM; FITC-dextran; FIG. 15
Method: Human carotid artery endothelial cells HCtAEC (Cell Applications) were seeded in the upper compartment of Transwell (diameter: 6.5 mm, pore size: 0.4 μm, collagen-Coated: Corning) so that the cell density was 1×10^5 cells/well, and the cells were cultured overnight in MesoEndo Growth Medium (Cell Applications) under a 5% CO2 atmosphere at 37° C. The medium was replaced with Endothelial Cell Serum-Free Defined Medium (Cell Applications), and the cells were further cultured overnight under the CO2 atmosphere at 37° C. Then, Compound 1 was added to the upper compartment and the lower compartment of Transwell so that the final concentration was 0 nM, 0.1 nM, 1 nM, 10 nM, or 100 nM, and the cells were cultured continuously. The well to which Compound 1 was not added was defined as a control. After culturing for 60 minutes, 250 μg/mL of fluorescein isothiocyanate (FITC)-dextran (2,000 kDa: Sigma-Aldrich) was added to the upper compartment of Transwell, and the amount of FITC-dextran which permeated into the lower compartment was determined by measuring the fluorescence intensity of the medium in the lower compartment after 5 minutes, 60 minutes, and 210 minutes. […]
After culturing for 60 minutes, the amount of FITC-dextran which permeated into the lower compartment was determined in a similar manner to Example 6.

SMILES: Cl.O=C(O)C1CCN(CC2=Cc3ccc(OCc4ccc(OCC(F)(F)F)c(C(F)(F)F)c4)cc3OC2)CC1 [Compound 2, 1-[(7-{[4-(2,2,2-trifluoroethoxy)-3-(trifluoromethyl)benzyl]oxy}-2H-chromen-3-yl)methyl]piperidine-4-carboxylic acid hydrochloride]
- formation of cerebral aneurysm (size) ([1]; 0.1 mg/5 mL suspension, FIG. 11): inhibited the formation of cerebral aneurysm

SMILES: Cl.NC(CO)(CO)CCc1ccc(Sc2cccc(OCc3ccccc3)c2)cc1Cl [Compound 3, 2-amino-2-[2-[4-[3-(benzyloxy)phenylsulfanyl]-2-chlorophenyl]ethyl]propane-1,3-diol hydrochloride]
- formation of cerebral aneurysm (size) ([1]; 0.01 mg/5 mL suspension, FIG. 12): inhibited the formation of cerebral aneurysm

SMILES: CCc1cc(/C(C)=N/OCc2ccc(C3CCCCC3)c(C(F)(F)F)c2)ccc1CN1CC(C(=O)O)C1 [Compound 4, 1-[4-[N-[4-cyclohexyl-3-(trifluoromethyl)benzyloxy]-1(E)-iminoethyl]-2-ethylbenzyl]azetidine-3-carboxylic acid]
- formation of cerebral aneurysm (size) ([1]; 0.3 mg/5 mL suspension, FIG. 13): inhibited the formation of cerebral aneurysm

SMILES: CCn1c(Oc2cccc(N3CCN(C)CC3)c2)nnc1[C@@H](C)NS(=O)(=O)c1ccc2c(Cl)cccc2c1 [Compound At, 5-chloro-N-[(1R)-1-{4-ethyl-5-[3-(4-methylpiperazin-1-yl)phenoxy]-4H-1,2,4-triazol-3-yl}ethyl]naphthalene-2-sulfonamide]
- effect on the inhibitory effect of Compound 1 on permeability of endothelial cells [2]: inhibited the inhibitory effect of Compound 1 on permeability of endothelial cells in a concentration-dependent manner
